In US6506876B1, “LTA4 hydrolase inhibitor pharmaceutical compositions and methods of use” (G.D. Searle & Co., priority 1994, dated 2003):
Counter-ions that a name gives are not always drawn. Like-named read-outs stand apart in the source and are kept apart here.

What was measured:
[1] = tested on: LTB4 production in human whole blood (LTA4 hydrolase); assay: LTB4 production by calcium ionophore stimulated human blood; format: cell-based; details: read-out: Inhibition of Calcium Ionophore-Induced LTB4 Production in Human Blood IC50 HWB
Experimental: LTB4 and Thromboxane Production by Calcium Ionophore Stimulated Human Blood for LTA4 Hydrolase Inhibitor Activity
One or more concentrations of the leukotriene A4 hydrolase inhibitor compounds being tested were prepared (diluted in DMSO) and 2 μl added and gently mixed with the diluted whole blood. After incubating for 15 minutes at 37° C. in a humidified incubator, calcium ionophore A23187 (Sigma Chemical Co., St. Louis, Mo.) was added to a final concentration of 20 mcg/ml and the incubation continued under the same conditions for an additional 10 minutes to allow LTB4 formation. The reaction was terminated by centrifugation (833 g, 10 minutes at 4° C.) and supernatant were analyzed for LTB4 and thromboxane by commercially available enzyme-linked immunoassays (Caymen Chemical Co., Ann Arbor, Mich.) according to the manufacturer's instructions. The IC50 of each test compound was determined from the amount of inhibition of LTB4 production as compared to an essentially identical assay in which no inhibitor compound was present.

[2] = tested on: LTB4 production in mouse blood (LTA4 hydrolase); assay: Ex vivo LTB4 production by calcium ionophore stimulated mouse blood after oral dosing; format: in vivo
How it was run: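 Male outbred mice dosed by oral gavage, 10 mg/kg (some at 50 mg/kg) in PBS with 2% DMSO and 1% Tween 80; heparinised blood taken at 60 min, calcium ionophore-stimulated 10 minutes at 37° C. LTB4 and thromboxane by ELISA; % inhibition against vehicle-dosed animals.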

[3] = molecular target: T1, recombinant human LTA4 hydrolase (rhLTA4H) (Homo sapiens, UniProt P09960); assay: Recombinant human LTA4 hydrolase assay for LTA4 hydrolase inhibitor activity
T1 sequence (P09960 1-611): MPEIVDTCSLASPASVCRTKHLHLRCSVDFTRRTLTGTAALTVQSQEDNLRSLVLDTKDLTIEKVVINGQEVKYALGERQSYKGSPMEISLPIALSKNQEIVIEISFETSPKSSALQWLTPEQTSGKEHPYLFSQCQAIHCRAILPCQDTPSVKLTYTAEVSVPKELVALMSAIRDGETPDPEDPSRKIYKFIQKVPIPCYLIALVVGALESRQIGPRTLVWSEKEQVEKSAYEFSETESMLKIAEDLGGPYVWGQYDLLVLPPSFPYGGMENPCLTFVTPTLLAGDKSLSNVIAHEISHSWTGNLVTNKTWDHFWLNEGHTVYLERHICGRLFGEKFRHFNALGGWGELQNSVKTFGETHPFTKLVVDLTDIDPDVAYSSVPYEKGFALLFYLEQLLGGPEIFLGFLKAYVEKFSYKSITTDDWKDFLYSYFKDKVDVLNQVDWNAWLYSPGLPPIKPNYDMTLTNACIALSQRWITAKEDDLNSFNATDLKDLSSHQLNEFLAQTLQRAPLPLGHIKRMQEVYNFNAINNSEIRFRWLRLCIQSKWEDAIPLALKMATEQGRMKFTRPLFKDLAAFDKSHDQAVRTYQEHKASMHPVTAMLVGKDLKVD
Experimental: One or more predetermined amounts of a compound of the invention were incubated in assay buffer (0.1 M potassium phosphate, 5 mg/ml fatty acid free BSA, 10% DMSO, pH 7.4) for 10 minutes at room temperature with 250 ng of recombinant hLTA4H to allow binding, if any, between the enzyme and inhibitor. The stock enzyme solution was 1 mg/ml LTA4 hydrolase, 50 mM Tris, pH 8.0, 150 mM NaCl, 2.5 mM beta-mercaptoethanol, 50% glycerol. […] Each reaction was carried out at room temperature for 10 minutes. The reaction was stopped by diluting 25 μl of the reaction mixture with 500 μl of the assay buffer without DMSO. LTB4 was quantified in the diluted sample by a commercially available enzyme-linked immunoassay [Caymen Chemical Co., Ann Arbor, Mich.] using the method recommended in the manufacturer's instructions and compared to the amount of LTB4 produced in a negative control (i.e., essentially identical conditions except without addition of an inhibitor compound). The IC50 was routinely calculated from the data produced.

[4] = Homo sapiens, human whole blood, A23187
[5] = mouse, oral gavage, 1 hour after administration of 10 mg/kg; read-out: Murine Ex Vivo LTB4 Inhibition % I LTB4
[6] = Recombinant Human LTA4 Hydrolase Assay IC50 LTA4H, recombinant hLTA4H
[7] = Mus musculus, po, 1 h; read-out: Murine Ex Vivo LTB4 Inhibition % I LTB4
[8] = Mus musculus, po, 1 h, read-out: Murine Ex Vivo LTB4 Inhibition % I LTB4

Row | SMILES | IC50 [1, 4] | inhibition in vivo at 10 mg/kg [2, 5] | IC50 [3, 6] | also measured
1 | c1ccc(Oc2ccc(NCCN3CCCC3)cc2)cc1 (as salt: HCl) [Example 71, N-(4-phenoxyphenyl)-1-pyrrolidine ethanamine, monohydrochloride] | – | – | – | melting point: 202 to 202.5 °C
2 | c1ccc(Cc2ccc(OCCn3cnc4cnccc43)cc2)cc1 [340 B] | 330 nM | 64% | 120 nM | –
3 | c1ccc(Oc2ccc(OCCCn3cnc4cnccc43)cc2)cc1 [351 B] | 2080 nM | 71% | 290 nM | –
4 | c1ccc(Cc2ccc3c(c2)CC(Cn2cnc4cnccc42)O3)cc1 (stereo not shown) [358 B] | – | – | 410 nM | IC50 ([1]; human whole blood, A23187): 640 nM; inhibition in vivo at 10 mg/kg [2, 7]: 33%
5 | c1ccc(Cc2ccc3c(c2)CC(Cn2ccc4ncnc-4c2)O3)cc1 (stereo not shown) [358 C] | – | – | 87 nM | IC50 ([1]; human whole blood, A23187): 590 nM; inhibition in vivo at 10 mg/kg [2, 7]: 13%
6 | c1ccc(Cc2ccc(OCCN3CCCC3)cc2)cc1 [Example 45, 1-[2-(4-phenylmethyl)phenoxyethyl]pyrrolidine] | – | – | – | IC50 ([1]; human whole blood, A23187): 116 nM; inhibition in vivo at 10 mg/kg [2, 7]: 35%
7 | C(=C\c1ccc(OCCN2CCCC2)cc1)/c1ccccc1 [Example 46, 1-[2-[4-(2-phenylethenyl)phenoxy]ethyl]pyrrolidine] | 1500 nM | 13% | – | –
8 | Cl.c1ccc(Cc2ccc(SCCN3CCCC3)cc2)cc1 [Example 68, 1-[2-[4-(phenylmethyl)phenylthio]ethyl]pyrrolidine, monohydrochloride] | – | – | – | melting point: 137 to 139 °C
9 | [O-][S+](CCN1CCCC1)c1ccc(Cc2ccccc2)cc1 (stereo not shown) [Example 69, 1-[2-[4-(phenylmethyl)phenylsulfinyl]ethyl]pyrrolidine, monohydrochloride] | – | – | 6520 nM | IC50 ([1]; Homo sapiens): 11800 nM; inhibition in vivo at 10 mg/kg [2, 8]: 13%
10 | Fc1cc(OCCN2CCCC2)ccc1Cc1ccccc1 [Example 116] | 1090 nM | 18% | – | –
11 | COc1ccc(Cc2ccc(OCCN3CCCC3)cc2)cc1 [Example 128] | 890 nM | 74% | – | –
12 | Clc1ccc(Cc2ccc(OCCN3CCCC3)cc2)cc1 [Example 140] | 1010 nM | 15% | – | –
13 | OCCOc1ccc(Oc2ccc(F)cc2)cc1 [Example 161] | – | – | – | melting point: 78 to 79 °C
14 | Oc1ccc(OCCN2CCCC2)cc1 [Example 199] | – | – | – | melting point: 113 to 115 °C
15 | CC(=O)NC1CCN(CCOc2ccc(Cc3ccccc3)cc2)C1 (stereo not shown) [Example 227] | – | – | – | IC50 ([1]; human whole blood, A23187): 420 nM; Murine Ex Vivo LTB4 Inhibition % I LTB4 ([2]; mouse, oral gavage, 1 hour after administration of 10 mg/kg): 23%
16 | COC(=O)C1CCCN1CCOc1ccc(Cc2ccccc2)cc1 (stereo not shown) [Example 237] | – | – | 450 nM | IC50 ([1]; Homo sapiens): 1860 nM
17 | CC(=O)NC1CCN(CCOc2ccc(Cc3ccccc3)cc2)CC1 [Example 238] | 180 nM | 49% | – | –
18 | CCOC(=O)C1CCN(CCOc2ccc(Cc3ccccc3)cc2)CC1 [Example 245] | – | – | 1770 nM | IC50 ([1]; Homo sapiens): 147 nM; inhibition in vivo at 10 mg/kg [2, 8]: 97%
19 | CC(=O)NC1CCN(CCOc2ccc(Cc3ccccc3)cc2)C1 (stereo not shown) [Example 256] | 420 nM | 23% | – | –
20 | CCOC(=O)CNCCCOc1ccc(Cc2ccccc2)cc1 [Example 264] | 1100 nM | – | – | inhibition in vivo at 50 mg/kg ([2]; mouse, oral gavage, 1 hour after administration of 50 mg/kg (*); read-out: Murine Ex Vivo LTB4 Inhibition % I LTB4): 87%
21 | CCOC(=O)CCNCCCOc1ccc(Cc2ccccc2)cc1 [Example 265] | 450 nM | 54% | 77 nM | –

Row | SMILES | IC50 [1, 4] | inhibition in vivo at 10 mg/kg [2, 5] | IC50 [3, 6] | also measured
22 | CCOC(=O)CCNCCCCOc1ccc(Cc2ccccc2)cc1 [Example 272] | 76 nM | 97% | – | –
23 | NC(=O)C1CCN(CC2Cc3cc(Cc4ccccc4)ccc3O2)CC1 (stereo not shown) [Example 281] | 169 nM | 83% | 93 nM | –
24 | COC(=O)C1CC2CCC(C1)N2CC1Cc2cc(Cc3ccccc3)ccc2O1 (stereo not shown) [Example 283] | – | – | 19 nM | IC50 ([1]; Homo sapiens): 90 nM; inhibition in vivo at 10 mg/kg [2, 8]: 90%
25 | CCOC(=O)CC1CCN(CCOc2ccc(Oc3ccccc3)cc2)CC1 [Example 300] | – | – | 5000 nM | IC50 ([1]; human whole blood, A23187): 2510 nM
26 | CCOC(=O)CNCCCCOc1ccc(Cc2ccccc2)cc1 [Example 320] | 354 nM | 85% | – | –
27 | CCOC(=O)CNCCCCCOc1ccc(Cc2ccccc2)cc1 [Example 321] | 421 nM | 87% | – | –
28 | COC(=O)CCNCCOc1ccc(Cc2ccccc2)cc1 [Example 324] | 586 nM | 62% | – | –
29 | CCOC(=O)C1C2CN(CCOc3ccc(Cc4ccccc4)cc3)CC21 (stereo not shown) [Example 325] | – | – | 20000 nM | IC50 ([1]; human whole blood, A23187): 2400 nM
30 | COC(=O)CCN(C)CCCOc1ccc(Cc2cccs2)cc1 [Example 331] | 95 nM | 97% | – | –
31 | c1ccc(Cc2ccc(OCCN3CCCCCC3)cc2)cc1 [Example 397] | – | – | – | IC50 ([1]; Homo sapiens): 120 nM; IC50 ([3]; read-out: Recombinant Human LTA4 Hydrolase Assay IC50 LTA4H): 37 nM
32 | c1ccc(Cc2ccc(OCCN3CCCCCCC3)cc2)cc1 [Example 398] | 470 nM | 0% | 220 nM | –
33 | O=C(CCNCCCOc1ccc(Cc2ccccc2)cc1)N1CCOCC1 [Example 424] | 580 nM | – | 370 nM | –
34 | NC(=O)C1CCN(CCOc2ccc(Cc3ccccc3)cc2)C1 (stereo not shown) [Example 425] | 360 nM | 60% | – | –
35 | O=C(O)C1C2CN(CCOc3ccc(Cc4ccccc4)cc3)CC21 (stereo not shown) [Example 435] | – | – | 225 nM | IC50 ([1]; human whole blood, A23187): 86 nM
36 | O=C(O)C1CCN(CCOc2ccc(Cc3cccs3)cc2)CC1 [Example 437] | – | – | 113 nM | IC50 ([1]; human whole blood, A23187): 693 nM
37 | O=c1[nH]c(C2CCCN(CCOc3ccc(Cc4ccccc4)cc3)C2)no1 (stereo not shown) [Example 448] | 825 nM | – | 820 nM | –
38 | NC1CCN(CCOc2ccc(Cc3ccccc3)cc2)C1 (stereo not shown) [Example 452] | 290 nM | 57% | – | –
39 | O=C(CCl)NC1CCN(CCOc2ccc(Cc3ccccc3)cc2)C1 (stereo not shown) [Example 454] | – | – | 140 nM | IC50 ([1]; human whole blood, A23187): 610 nM
40 | NC(=O)NC1CCN(CCOc2ccc(Cc3ccccc3)cc2)CC1 [Example 456] | 440 nM | 72% | – | –
41 | NC(=O)N1CCN(CCOc2ccc(Cc3ccccc3)cc2)CC1 [Example 459] | 2400 nM | 44% | – | –
42 | NCCOc1ccc(Cc2ccccc2)cc1 [Example 496] | 280 nM | 54% | 10 nM | –
